Experimental data taken from patent publication US6147230A, “Amino acid dysiherbaine” (priority 1996, dated 2000).
Like-named read-outs stand apart in the source and are kept apart here.

Assays:
[1] = tested on: Glutamate receptors expressed in primary cultures of rat cerebral cortex neurocytes; experiment: Electrophysiological evaluation (patch clamp whole cell) in primary cultures of rat cerebral cortex neurocytes; assay type: cell-based
Excerpt: Electrophysiological evaluation in primary cultures of rat cerebral cortex neurocytes

[2] = target: AMPA receptors; experiment: Radiobinding assay in rat brain synaptic membrane samples, [^3 H] AMPA (AMPA receptors); assay type: binding; conditions: [^3 H] AMPA 5 nM, 4° C., 1 hour; for IC50: 100 mM KSCN/50 mM Tris-acetate pH 7.4, read-out: IC50, inhibition of [^3 H] AMPA binding
Description: (§1) Radiobinding assay in rat brain synaptic membrane samples
(§2) Rat brain synaptic membrane samples were prepared according to the described protocols (London, E. D., Coyle, J. T., Mol. Pharmacol. 1979, 15, 492; Murphy, D. E., Snowhill, E. W.; Williams, M., Neurochem. Res. 1987, 12, 775 and Murphy, D. E., Hutchison, A. J., Hurt, S. D., Williams, M., Sills, M. A., Br. J. Pharmacol. 1988, 95, 932). Radioligands and incubation conditions used in the binding assay as well as experimental results are as follows:
[Conditions]: ligand [^3 H] AMPA 5 nM; incubation medium 100 mM KSCN/50 mM Tris-acetate buffer (pH 7.4); incubation condition 4° C., 1 hour.

[3] = tested on: DDY mouse; experiment: Intraperitoneal administration to mice; assay type: in vivo
Description: Intraperitoneal administration to mice
Compound (1) was diluted with purified water and intraperitoneally injected into a DDY mouse (male, 15 g).

[4] = tested on: NMDA receptors; experiment: Radiobinding assay in rat brain synaptic membrane samples, [^3 H] CGS-19755 (NMDA receptors); assay type: binding; conditions: [^3 H] CGS-19755 10 nM; 50 mM Tris-acetate pH 8.0; 4° C., 1 hour
Description: as §1, §2
[Conditions]: ligand [^3 H] CGS-19755 10 nM; incubation medium 50 mM Tris-acetate buffer (pH 8.0); incubation condition 4° C., 1 hour.

[5] = target: KA receptors; experiment: Radiobinding assay in rat brain synaptic membrane samples, [^3 H] kainic acid (KA receptors); assay type: binding; conditions: [^3 H] kainic acid 1 nM, 4° C., 1 hour; for IC50: 100 mM Tris-acetate pH 7.1, read-out: IC50, inhibition of [^3 H] kainic acid binding
Description: as §1, §2
[Conditions]: ligand [^3 H] kainic acid 1 nM; incubation medium 100 mM Tris-acetate buffer (pH 7.1); incubation condition 4° C., 1 hour.

[6] = tested on: rats; conditions: prior art statement; cited from earlier work
[7] = inward current, patch clamp whole cell; cultures grown 10-21 days
[8] = read-out: EC50, inward current; patch clamp whole cell; cultures grown 10-21 days

Question: Which Max response [1, 7] does the source give for Cc1onc(O)c1CC(N)C(=O)O (stereo not drawn) [AMPA, α-amino-3-hydroxy-5-methyl-4-isoxazolepropionic acid] here?
Answer: 1.26 nA

Question: What about the EC50 ([1]; patch clamp whole cell; cultures grown 10-21 days; read-out: EC50, inward current) of the same compound?
Answer: 4000 nM

Question: What about the IC50 [2] of the same compound?
Answer: 5.6 ± 1.1 nM

Question: With N#Cc1cc2[nH]c(=O)c(=O)[nH]c2cc1[N+](=O)[O-] [CNQX, 6-cyano-7-nitroquinoxaline-2,3-dione] as the compound, how does the “inhibition of the current induced by Compound (1)” value ([1]; current induced by Compound (1)) read?
Answer: significantly inhibited

Question: With CNC1C(O)COC2CC(CC(N)C(=O)O)(C(=O)O)OC21 (centres unmarked) [Compound (1), dysiherbaine] as the compound, how does the “behavioural effect, low dose” value ([3]; 20 μg/kg i.p., male DDY mouse) read?
Answer: repeat scratching on the flank

Question: What about the “duration of repeated scratching on the flank” value ([3]; 20 μg/kg i.p., male DDY mouse) of the same compound?
Answer: 10 to 20 min

Question: And the “behavioural effect, moderate dose” value ([3]; 1.3 mg/kg i.p., male DDY mouse)?
Answer: epileptoid spasm

Question: And the “recovery, moderate dose” value ([3]; 1.3 mg/kg i.p., male DDY mouse)?
Answer: recovered from this condition on the following day

Question: And the “effect, higher dose” value ([3]; 6.5 mg/kg i.p., male DDY mouse)?
Answer: died in about 40 minutes after violent attack

Question: What about the time to death ([3]; 6.5 mg/kg i.p., male DDY mouse) of the same compound?
Answer: about 40 minutes

Question: And the “in vivo activity compared with domoic acid” value ([3]; compared with known KA agonist domoic acid)?
Answer: stronger in vivo activity than a known KA agonist domoic acid

Question: And the “inhibition of [^3 H] CGS-19755 binding to NMDA receptors” value [4]?
Answer: did not inhibit

Question: What about the “inward current compared with kainic acid” value ([1]; compared with kainic acid) of the same compound?
Answer: stronger inward current than kainic acid

Question: And the Max response [1, 7]?
Answer: 1.40 nA

Question: What about the “induction of inward current” value ([1]; patch clamp whole cell) of the same compound?
Answer: concentration-dependently induced a strong inward current

Question: And the EC50 [1, 8]?
Answer: 4000 nM

Question: And the IC50 [2]?
Answer: 224 ± 22 nM

Question: And the “inhibition of [^3 H] AMPA binding to AMPA receptors” value ([2]; pH 7.4)?
Answer: concentration-dependently inhibited

Question: And the IC50 [5]?
Answer: 59 ± 7.8 nM

Question: And the “inhibition of [^3 H] kainic acid binding to KA receptors” value ([5]; pH 7.1)?
Answer: concentration-dependently inhibited

Question: For N[C@@H](CCC(=O)O)C(=O)O [Glutamic acid, L-glutamic acid, reference compound], which IC50 [2] is on record?
Answer: 124 ± 41 nM

Question: What about the IC50 [5] of the same compound?
Answer: 110 ± 18 nM

Question: Which results are given for C=C(C)[C@H]1CN[C@H](C(=O)O)[C@H]1CC(=O)O [Kainic acid, kainic acid]?
Answer: Max response [1, 7]: 1.31 nA; EC50 [1, 8]: 40000 nM; IC50 [5]: 4.3 ± 0.5 nM; lesions and neuronal degeneration in rats [6]: induces epileptoid lesions and neuronal degeneration in rats
